Laboratory results reported in patent US20090004660A1, “METHOD FOR DETECTING NEUROBLASTOMA AND ITS MALIGNANCY AND METHOD FOR SUPPRESSING THE SAME” (priority 2007, published 2009).
Entries after “also recorded” stand apart in the source; their conditions may differ.

Legend:
Type in all cases: cell-based, human
PTGER2 gene = experiment: RT-PCR of PTGER2 gene expression in treated neuroblastoma cell lines lacking PTGER2 expression
Description: Moreover, in order to investigate whether or not the lowered expression of the PTGER2 gene was due to DNA methylation, neuroblastoma cell lines lacking expression of the PTGER2 gene were used and treated with 1 μM or 5 μM of 5-aza-dCyd, a demethylating reagent, for 5 days and/or 100 ng/ml of TSA, a deacetylation inhibitor, for 12 hours. RNA was extracted from each cell line and the PTGER2 gene expression thereof was examined by RT-PCR (FIG. 1C).

[1] = tested on: CpG island of the PTGER2 gene; experiment: Methylation status of the PTGER2 CpG island in neuroblastoma cells cultured with a demethylating agent; conditions: neuroblastoma cells cultured in the presence of 5-aza-dC
PTGDR gene = experiment: RT-PCR of PTGDR gene expression in treated neuroblastoma cell lines; conditions: three types of neuroblastoma cell lines, treatment with 5-aza-dCyd
GOTO and SJ-N-CG cells = experiment: WST cell viability assay in neuroblastoma cell lines; conditions: PTGER2 gene-nonexpressing cell lines (GOTO, SJ-N-CG); 0.01 mM, 0.1 mM, 1 mM for 72 hours
Description: Since the PTGER2 protein and G protein are coupled to be associated with increased intracellular cAMP concentration (Narumiya, et al., Physiol Rev, 79, 1193-1226, 1999), the association between intracellular cAMP concentration and proliferation of neuroblastoma was investigated. First, neuroblastoma cell lines lacking expression of the PTGER2 gene (GOTO and SJ-N-CG) and neuroblastoma cell lines expressing the PTGER2 gene (SJ-N-KP and KP-N-SIFA) were cultured in a growth medium with 0 mM, 0.01 mM, 0.1 mM, and 1 mM of 8-Br-cAMP for 72 hours. Then, the viability of these cells was detected by WST assay (FIG. 5).

Compound: Nc1ncn([C@H]2C[C@H](O)[C@@H](CO)O2)c(=O)n1 [5-aza-dCyd, 5-azadeoxycytidine]
- PTGER2 gene expression (PTGER2 gene; 1 μM or 5 μM 5-aza-dCyd alone for 5 days): restored
- PTGER2 gene expression (PTGER2 gene; 1 μM or 5 μM 5-aza-dCyd alone for 5 days, listed as 5-aza-dC): successfully restored
- demethylation of the CpG island of the PTGER2 gene [1]: successfully demethylated
- PTGDR gene expression (PTGDR gene): restored

Compound: Nc1ncnc2c1nc(Br)n2[C@@H]1O[C@@H]2COP(=O)(O)O[C@H]2[C@H]1O [8-Br-cAMP]
- proliferation (cell viability by WST assay) (GOTO and SJ-N-CG cells): suppressed

Compound: CC(/C=C/C(=O)NO)=C\[C@@H](C)C(=O)c1ccc(N(C)C)cc1 [TSA, Trichostatin A]
- PTGER2 gene expression (PTGER2 gene; 100 ng/ml TSA alone for 12 hours): restored; also recorded: increased level
